This is an account of results in PMC7782785, “Outer-membrane-acting peptides and lipid II-targeting antibiotics cooperatively kill Gram-negative pathogens” (Communications Biology, 2021).

Values after ≈ are worked out from the molar mass of the structure shown.

The test system of assay [1] is K. pneumoniae LMG 20218. As to conditions: K. pneumoniae. Here is the method:
For the synergy test, standard checkerboard broth microdilution assays were conducted to test the synergistic effect of combined antimicrobials using the same condition as before[51],[56]. […] The initial concentration of both peptides was their individual MIC. 50 µL fresh bacterial suspension prepared as above was added to the wells already containing the antimicrobial compound mixture to achieve 100 µL final volume per well.
The fractional inhibitory concentration (FIC) indices[57] were calculated using the formula FICI = FICa + FICb = MICac/MICa + MICbc/MICb, to determine whether the combination is additive, synergistic or antagonistic[51],[57]. The MICa and MICb is the MIC of compound A or B alone, respectively. MICac is the MIC of compound A in combination with compound B and MICbc is the MIC of compound B when it was combined with compound A. The FIC corresponds to the MIC of a compound in combination with the other compound, divided by the MIC of the compound alone. FICa is FIC of compound A while FICb is FIC of compound B. The FICI was interpreted according to EUCAST[58] as follows: synergistic, FICI ≤ 0.5; additive,0.5 < FICI ≤ 1; indifferent, 1 < FICI < 2; antagonistic, FICI ≥ 2.
The condition for the tests and the analysis of the plates were performed as described above for the MIC tests.

Assay [2] relates to P. aeruginosa B1954. Kind of assay: microbe, parasite or virus in culture. The format is cell-based. As to conditions: Pseudomonas aeruginosa, B1954, read-out: MIC alone (MICA vancomycin, MICB D-11). Here is the method: (§1) MIC tests were performed in triplicate by liquid growth inhibition microdilution assays in sterile polypropylene microtiter plates according to the Clinical and Laboratory Standards Institute (CLSI) guideline for bacteria that grow aerobically. Briefly, the indicator strains were first streaked on the appropriate agar plate, and then single colonies were picked and incubated overnight in liquid broth. The final inoculum of bacteria was 5*10^5 CFU/mL prepared in CAMHB (cationic adjusted Mueller–Hinton broth, Sigma-Aldrich) or CAMHB plus 5% of lysed horse blood (TCS Biosciences, Buckingham, UK) in the case of S. pneumoniae. The antimicrobials were 2-fold serially diluted and 50 µL diluted bacterial suspension was added to each well to make the final volume 100 µL. The microtiter plates and the count plates were incubated at 37 °C for 16–20 h without shaking. Growth inhibition was assessed by measuring the OD600 using a microplate reader (Tecan Infinity F200). The lowest concentration of the antimicrobials that inhibits visible growth of the indicator strain is identified as the MIC value.

The test system of assay [3] is P. aeruginosa ATCC 27853. Nature of the assay: microbe, parasite or virus in culture. The format is cell-based. As to conditions: Pseudomonas aeruginosa, ATCC27853, read-out: MIC alone (MICA vancomycin, MICB D-11). As for the experimental part: as §1
Assay [4] concerns K. pneumoniae ATCC BAA-2524. Kind of assay: microbe, parasite or virus in culture. Type of assay: cell-based. The conditions noted are these: Klebsiella pneumoniae, ATCCBAA2524, read-out: MIC alone (MICA vancomycin, MICB D-11). Here is the method:
as §1

For assay [5], the system named is P. aeruginosa PA14. Nature of the assay: microbe, parasite or virus in culture. Type of assay: cell-based. As to conditions: Pseudomonas aeruginosa, PA14, read-out: MIC alone (MICA vancomycin, MICB D-11). Here is the method: as §1
The test system of assay [6] is K. pneumoniae B1945. Nature of the assay: microbe, parasite or virus in culture. The format is cell-based. As to conditions: Klebsiella pneumoniae, B1945, read-out: MIC alone (MICA vancomycin, MICB D-11). As for the experimental part: as §1

Turning to `CN[C@H](CC(C)C)C(=O)N[C@H]1C(=O)N[C@@H](CC(N)=O)C(=O)N[C@H]2C(=O)N[C@H]3C(=O)N[C@H](C(=O)N[C@H](C(=O)O)c4cc(O)cc(O)c4-c4cc3ccc4O)[C@H](O)c3ccc(c(Cl)c3)Oc3cc2cc(c3O[C@@H]2O[C@H](CO)[C@@H](O)[C@H](O)[C@H]2O[C@H]2C[C@](C)(N)[C@H](O)[C@H](C)O2)Oc2ccc(cc2Cl)[C@H]1O` [Vancomycin], the “vancomycin concentration needed in combination with D-11” value in assay [1] (checkerboard after the addition of excess LPS (1.0 mg/mL)) is listed as “at least 32 µM”. The “vancomycin concentration inhibiting growth in combination with 1 µM D-11” value in assay [1] (checkerboard without the addition of LPS) was determined as 2 µM. The MIC was 88.3 µM (≈ 128 µg/mL) in assay [2]; over 88.3 µM in assay [3]; over 88.3 µM in assay [4]; 88.3 µM (≈ 128 µg/mL) in assay [5]; over 88.3 µM in assay [6].
